Assay [1] addresses T1, Tyrosinase (Homo sapiens, UniProt P14679).
T1 sequence (P14679 whole entry): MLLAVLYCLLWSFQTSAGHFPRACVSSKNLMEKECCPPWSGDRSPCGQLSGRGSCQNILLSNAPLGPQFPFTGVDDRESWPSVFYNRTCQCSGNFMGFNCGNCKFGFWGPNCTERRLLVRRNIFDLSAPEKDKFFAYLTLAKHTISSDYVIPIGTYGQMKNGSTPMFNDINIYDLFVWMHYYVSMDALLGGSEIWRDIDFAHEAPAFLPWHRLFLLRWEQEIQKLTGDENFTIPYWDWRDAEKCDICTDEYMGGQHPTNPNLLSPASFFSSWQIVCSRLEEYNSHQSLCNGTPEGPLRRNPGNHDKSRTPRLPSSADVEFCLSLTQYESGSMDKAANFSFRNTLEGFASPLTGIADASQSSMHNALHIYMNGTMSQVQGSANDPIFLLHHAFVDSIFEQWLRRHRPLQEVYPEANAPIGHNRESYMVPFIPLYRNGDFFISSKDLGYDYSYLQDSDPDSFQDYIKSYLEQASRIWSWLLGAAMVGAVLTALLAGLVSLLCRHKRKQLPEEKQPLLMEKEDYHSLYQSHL
Nature of the assay: Inhibition of tyrosinase (unknown origin).

Assay [2] has as its system Escherichia coli. Nature of the assay: Antibacterial activity against Escherichia coli. Format: functional.
The subject of assay [3] is Staphylococcus aureus. Nature of the assay: Antibacterial activity against methicillin resistant Staphylococcus aureus. The class given is functional.
Assay [4] has as its system Staphylococcus epidermidis. Description: Antibacterial activity against methicillin resistant Staphylococcus epidermidis. Format: functional.
Assay [5] concerns Pseudomonas aeruginosa. Nature of the assay: Antibacterial activity against Pseudomonas aeruginosa. The class given is functional.
Assay [6] has as its system Klebsiella pneumoniae. Description: Antibacterial activity against Klebsiella pneumoniae. Format: functional.
Assay [7] deals with Enterococcus faecalis. Nature of the assay: Antibacterial activity against Enterococcus faecalis. The class given is functional.
The target in assay [8] is T2, NAD-dependent protein deacetylase sirtuin-1 (Homo sapiens, UniProt Q96EB6).
T2 sequence (Q96EB6 whole entry): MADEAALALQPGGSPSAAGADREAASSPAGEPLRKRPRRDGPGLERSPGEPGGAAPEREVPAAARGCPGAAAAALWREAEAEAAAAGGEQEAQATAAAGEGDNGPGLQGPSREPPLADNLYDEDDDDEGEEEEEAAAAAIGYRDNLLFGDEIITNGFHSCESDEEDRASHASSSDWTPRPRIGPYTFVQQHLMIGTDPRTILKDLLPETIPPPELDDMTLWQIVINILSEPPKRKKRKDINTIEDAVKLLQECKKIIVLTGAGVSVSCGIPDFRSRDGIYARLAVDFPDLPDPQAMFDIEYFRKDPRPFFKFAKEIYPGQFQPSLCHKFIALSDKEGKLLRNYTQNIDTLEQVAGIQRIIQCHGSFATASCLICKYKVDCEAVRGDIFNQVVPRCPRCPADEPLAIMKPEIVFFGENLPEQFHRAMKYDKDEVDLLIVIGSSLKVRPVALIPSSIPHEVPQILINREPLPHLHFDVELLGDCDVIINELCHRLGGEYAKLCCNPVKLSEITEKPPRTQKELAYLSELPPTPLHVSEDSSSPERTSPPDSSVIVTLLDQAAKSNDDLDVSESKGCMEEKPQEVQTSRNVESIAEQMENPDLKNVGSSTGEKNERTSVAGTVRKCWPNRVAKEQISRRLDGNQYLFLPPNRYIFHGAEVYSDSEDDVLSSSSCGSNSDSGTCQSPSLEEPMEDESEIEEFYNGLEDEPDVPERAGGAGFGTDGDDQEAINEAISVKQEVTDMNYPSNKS
Description: Inhibition of recombinant human SIRT1 after 30 mins.

Assay [9] has as its target T3, NAD-dependent protein deacetylase sirtuin-2 (Homo sapiens, UniProt Q8IXJ6).
T3 sequence (Q8IXJ6 whole entry): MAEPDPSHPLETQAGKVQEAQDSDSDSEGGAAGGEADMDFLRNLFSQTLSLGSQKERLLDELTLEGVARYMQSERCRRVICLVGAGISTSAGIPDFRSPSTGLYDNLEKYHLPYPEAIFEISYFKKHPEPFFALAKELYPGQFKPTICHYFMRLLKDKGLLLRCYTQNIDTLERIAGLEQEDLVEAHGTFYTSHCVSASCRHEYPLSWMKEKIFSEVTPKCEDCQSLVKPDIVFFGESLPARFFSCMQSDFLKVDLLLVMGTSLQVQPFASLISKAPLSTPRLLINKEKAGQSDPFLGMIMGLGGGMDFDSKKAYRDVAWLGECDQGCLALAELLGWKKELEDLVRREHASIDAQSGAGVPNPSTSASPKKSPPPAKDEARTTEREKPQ
Description: Inhibition of recombinant human SIRT2 after 30 mins.

Assay [10] concerns HEp-2. Nature of the assay: Cytotoxicity against human Hep2 cells assessed as reduction in cell viability by MTT assay. The class given is functional, cell-based.
The test system of assay [11] is Escherichia coli. Description: Antibacterial activity against Escherichia coli ATCC 25922. The class given is functional.
The test system of assay [12] is Pseudomonas aeruginosa. Nature of the assay: Antibacterial activity against Pseudomonas aeruginosa ATCC 27853. Format: functional.
For assay [13], the system named is Enterococcus faecalis. Nature of the assay: Antibacterial activity against Enterococcus faecalis ATCC 29212. The class given is functional.
The subject of assay [14] is Staphylococcus aureus. Description: Antibacterial activity against Staphylococcus aureus ATCC 25923. The class given is functional.
For assay [15], the system named is Staphylococcus aureus. Description: Antibacterial activity against methicillin resistant Staphylococcus aureus ATCC 43300. The class given is functional.
Assay [16] relates to Mus musculus. Nature of the assay: Anti-inflammatory activity in xylene-induced Kunming mouse assessed as inhibition of ear edema administered as po dose 1 hr before xylene administration and measured after 1 hr xylene administration relative to control. Format: functional. Also on record: scale not given: the % may be the effect or the level left.
The subject of assay [17] is Mus musculus. Description: Antitussive activity in ammonia aerosol-stimulated Kunming mouse assessed as inhibition of number of cough administered as po dose 1 hr before ammonia aerosol stimulation (reference value: 42). Format: functional.
Assay [18] deals with Staphylococcus aureus. Nature of the assay: Antibacterial activity against Staphylococcus aureus. The class given is functional.

SMILES strings stand for the structures. Converted amounts (≈) assume the structure as drawn.

In assay [1], `COC(=O)CN1C(=O)N(CCCCN2CCN(c3ccccc3OC)CC2)C(c2ccccc2)(c2ccccc2)C1=O` had a concentration for half-maximal inhibition (IC50) of 1.07 µM.
On the same count and under the same terms, the same measure for `COc1ccccc1N1CCN(CCCCN2C(=O)N(C)C(=O)C2(c2ccccc2)c2ccccc2)CC1`: 7.36 µM.
For the compound `CCCCCCCCCCCC(=O)N[C@@H](CCCCN)CN1CC(=O)N(c2cccc(Cl)c2)C1=O`, the minimal inhibitory concentration (MIC) in assay [2] came out at 1 mg/L; in assay [3], 0.5 mg/L (≈ 0.986 µM); in [4], 0.5 mg/L (≈ 0.986 µM); in assay [5] it was 1 mg/L (≈ 1.97 µM); in assay [6] it was 0.78 mg/L (≈ 1.54 µM); in [7], 0.5 mg/L (≈ 0.986 µM).
Take `O=C1N/C(=C\c2ccc(N3CCCC3)cc2)C(=O)N1Cc1ccc(Cl)cc1`: the 50% inhibitory concentration (IC50) in assay [8] came to 38.6 µM; in [9], 38.8 µM.
Take `CC(C)C1NC(=O)N(OCc2cccc(Cl)c2)C1=O` (stereo unspecified): the half-inhibitory concentration (IC50) in assay [10] was 0.07 µM.
`CC(C)CC1NC(=O)N(OCc2cccc(Cl)c2)C1=O` (stereo unspecified): the half-inhibitory concentration (IC50) in assay [10] was found to be 0.04 µM.
With `CC(C)CC1NC(=O)N(OCc2ccc(Br)cc2)C1=O` (stereo unspecified), in [10], the IC50 worked out at 0.15 µM.
For the compound `O=C1CN(/N=C2\C(=O)N(Cc3ccc(F)cc3)c3ccccc32)C(=O)N1`, the MIC is 6.25 to 12.5 mg/L (≈ 17.7 to 35.5 µM) in assay [11]; 12.5 mg/L (≈ 35.5 µM) in [12]; 12.5 mg/L (≈ 35.5 µM) in [13]; 6.25 mg/L (≈ 17.7 µM) in [14]; 6.25 mg/L (≈ 17.7 µM) in assay [15].
`CC(C)Cc1ccc(C(C)C(=O)N2C(=O)CN(C)C2=O)cc1` (stereo unspecified): in assay [16], the Activity is 54.61%. The Number of coughs in [17] was determined as 15.5.
As for `CCN(CC)c1ccc(/C=C2\NC(=O)N(Cc3ccc(C)cc3)C2=O)cc1`, the figures for the IC50 in assay [8] and in assay [9] were 94 µM and 68.7 µM, respectively.
`O=C1CN(/N=C2\C(=O)N(Cc3ccccc3F)c3ccccc32)C(=O)N1`: the MIC in assay [11] was 6.25 to 12.5 mg/L (≈ 17.7 to 35.5 µM); in assay [12], 12.5 mg/L (≈ 35.5 µM); in assay [13] it was 12.5 mg/L (≈ 35.5 µM); in assay [14], 6.25 mg/L (≈ 17.7 µM); in assay [15] it was 6.25 mg/L (≈ 17.7 µM).
`CC(C)Cc1ccc(C(C)C(=O)N2C(=O)CNC2=O)cc1` (stereo unspecified): in assay [16], the Activity came to 24.51%. Also, in [17], the Number of coughs is recorded as 18.3.
For the compound `O=C1NC(CN2CCCC2)C(=O)N1c1c(Cl)cccc1Cl` (stereo unspecified), the values for the minimum inhibitory concentration (MIC) in assay [18] and in assay [2] were 0.044 µM (≈ 0.0144 µg/mL) and 0.088 µM, respectively.
For `O=C1N/C(=C\c2ccc(O)c(Cl)c2)C(=O)N1Cc1ccc(F)cc1`, the IC50 in assay [8] came out at 32.1 µM; in assay [9], 37.7 µM.
Turning to `CC(C)Cc1ccc(C(C)C(=O)N2C(=O)N(C)C(C)(C)C2=O)cc1` (stereo unspecified), in assay [16], the Activity is recorded as 25%. Also, the Number of coughs in assay [17] is recorded as 18.6.
On to `O=C1CN(/N=C2\C(=O)N(Cc3cccc(F)c3)c3ccccc32)C(=O)N1`, for which the MIC is 6.25 to 12.5 mg/L (≈ 17.7 to 35.5 µM) in [11]; 12.5 mg/L (≈ 35.5 µM) in assay [12]; 12.5 mg/L (≈ 35.5 µM) in [13]; 6.25 mg/L (≈ 17.7 µM) in assay [14]; 6.25 mg/L (≈ 17.7 µM) in assay [15].
For the compound `CC(C)Cc1ccc(C(C)C(=O)O)cc1` (stereo unspecified) [IBUPROFEN], the Activity in [16] came out at 28.07%.
